Assay results as given in PubChem BioAssay (NCI).
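96-well plates; 48 h exposure; 5 concentrations. Endpoints by linear interpolation between flanking doses. Not reached: highest tested concentration assigned. TGI is the concentration that stops growth completely.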

Columns and labels:
Experiment in all cases: NCI tumour cell line growth inhibition, 48 h
[1] = system: A549 NSCLC
[2] = system: ACHN renal
[3] = system: CCRF-CEM leukemia
[4] = system: COLO 205 colon
[5] = system: DU-145 prostate
[6] = system: HOP-62 NSCLC
[7] = system: HOP-92 NSCLC
[8] = system: HT29 colon
[9] = system: MOLT-4 leukemia
[10] = system: NCI-H226 lung
[11] = system: OVCAR-3 ovarian
[12] = system: PC-3 prostate
[13] = system: RPMI-8226 leukemia
[14] = system: RXF 393 renal
[15] = system: SK-OV-3 ovarian
[16] = system: SW-620 colon
[17] = system: U251 CNS
[18] = system: UACC-62 melanoma
[19] = system: UO-31 renal
[20] = system: HL-60(TB) leukemia

SMILES | TGI [1] [µM] | TGI [2] [µM] | TGI [3] [µM] | TGI [4] [µM] | TGI [5] [µM] | TGI [6] [µM] | TGI [7] [µM] | TGI [8] [µM] | TGI [9] [µM] | TGI [10] [µM] | TGI [11] [µM] | TGI [12] [µM] | TGI [13] [µM] | TGI [14] [µM] | TGI [15] [µM] | TGI [16] [µM] | TGI [17] [µM] | TGI [18] [µM] | TGI [19] [µM] | TGI [20] [µM]
CN(C)c1ccc(C2CC(c3ccc4ccccc4c3O)=NN2)cc1 (stereo unspecified) | > 100 | > 100 | 83.3 | 51.5 | > 100 | > 100 | > 100 | > 100 | 92 | > 100 | > 100 | > 100 | > 100 | > 100 | > 100 | > 100 | > 100 | > 100 | > 100 | –
S=c1nc2sc3c(c2c(Nc2ccc(Cl)cc2)[nH]1)CCCC3 | – | > 100 | > 100 | > 100 | > 100 | > 100 | > 100 | > 100 | > 100 | > 100 | > 100 | > 100 | 72.4 | > 100 | > 100 | > 100 | > 100 | > 100 | > 100 | > 100
CC(=O)Nc1oc(C)c(C)c1S(=O)(=O)c1ccc(Cl)cc1 | > 100 | > 100 | > 100 | > 100 | > 100 | – | > 100 | > 100 | > 100 | > 100 | > 100 | 83.4 | > 100 | > 100 | > 100 | > 100 | > 100 | > 100 | > 100 | > 100
N#Cc1cccc2c1Sc1ccccc1N2 | > 100 | > 100 | > 100 | 60.2 | > 100 | – | > 100 | > 100 | 85.7 | > 100 | > 100 | > 100 | > 100 | 33.7 | > 100 | > 100 | > 100 | > 100 | 87.9 | > 100
NC(=O)c1ccc(C(=O)Nc2ccc([As](=O)(O)O)cc2)cc1 | > 100 | > 100 | > 100 | > 100 | > 100 | > 100 | > 100 | > 100 | > 100 | > 100 | > 100 | > 100 | > 100 | > 100 | > 100 | > 100 | > 100 | > 100 | > 100 | > 100
C=CCC1(O)CC(n2cc(C)c(=O)[nH]c2=O)OC1CO[Si](C)(C)C(C)(C)C (stereo unspecified) | > 100 | > 100 | > 100 | 42.7 | > 100 | > 100 | > 100 | > 100 | > 100 | > 100 | > 100 | > 100 | 97.7 | > 100 | – | > 100 | > 100 | > 100 | > 100 | –
O=C1OCN(c2ccccc2)C12CCN(Cc1ccccc1)CC2 | > 100 | > 100 | 48.7 | 39.6 | > 100 | > 100 | > 100 | 31.9 | 36.6 | > 100 | – | > 100 | 89 | 33.2 | > 100 | 49.8 | 31.5 | 37.2 | > 100 | > 100
COc1cccc2c1C(=O)C1=C(C2=O)C(O)CC(C)(C)O1 (stereo unspecified) | > 100 | > 100 | 66.9 | 54 | > 100 | > 100 | > 100 | > 100 | 82.6 | > 100 | 40.5 | 68.4 | 60.4 | > 100 | > 100 | > 100 | > 100 | 60.9 | > 100 | 33.8
CC1=C(C(=O)OCCO[N+](=O)[O-])C(c2cccc([N+](=O)[O-])c2)C(C(=O)OC(C)C)=C(C)N1 (stereo unspecified) | 37.4 | > 100 | > 100 | 24.4 | 65.9 | 30.9 | 25.5 | 29.2 | > 100 | 28.2 | 23.6 | 15.6 | > 100 | 31.5 | 36.9 | 51.1 | 28.7 | 30.2 | 28.1 | > 100
CC(=O)c1cccc(Nc2nc3ccccc3c3occc23)c1 | > 100 | 39.9 | > 100 | > 100 | > 100 | 34.6 | 33 | > 100 | > 100 | 8.25 | > 100 | > 100 | > 100 | 41.7 | 40.8 | – | 55.9 | – | – | > 100
C=C1C[C@@H]2CC[C@@]34CC5O[C@H]6C(O[C@H]7CC[C@H](CC(=O)O[C@@H]8[C@@H](C)[C@@H]9O[C@@H]%10C[C@]%11(C[C@@H]%12O[C@]%13(C[C@H](C)[C@@H]%14O[C@@H]%15CC(C(O)CO)O[C@@H]%15C[C@@H]%14O%13)C[C@H](C)[C@@H]%12O%11)O[C@@H]%10C[C@@H]9O[C@H]8CC8O[C@@H](CC[C@@H]1O2)C[C@@H](C)C8(O)CO)O[C@@H]7[C@@H]6O3)[C@H]5O4 (stereo partly specified) | > 1 | > 1 | > 1 | > 1 | > 1 | > 1 | > 1 | – | > 1 | > 1 | > 1 | > 1 | > 1 | > 1 | > 1 | > 1 | > 1 | > 1 | > 1 | > 1
COc1ccccc1CCN1CCN(CCCc2ccccc2)CC1 | > 100 | > 100 | > 100 | 76 | > 100 | > 100 | 23.2 | > 100 | > 100 | > 100 | > 100 | > 100 | > 100 | > 100 | > 100 | > 100 | > 100 | > 100 | > 100 | > 100
O=c1c2cccnc2n2n1Cc1ccccc1C2 | > 100 | > 100 | > 100 | – | > 100 | > 100 | > 100 | > 100 | > 100 | > 100 | > 100 | > 100 | > 100 | > 100 | > 100 | > 100 | > 100 | > 100 | > 100 | > 100
c1ccc(C(C2=Nc3cccc4cccc(c34)N2)c2ccccc2)cc1 | > 100 | 50.2 | > 100 | 36.7 | 91.3 | 56.6 | 44 | 60.1 | – | 84.7 | 41.5 | 87.3 | > 100 | 61.5 | 51.8 | > 100 | 35.3 | 32.8 | 51.2 | > 100
O=c1ccn([C@@H]2C[C@H]2CO)c(=O)[nH]1 | > 100 | > 100 | > 100 | > 100 | > 100 | > 100 | > 100 | > 100 | > 100 | > 100 | – | > 100 | > 100 | > 100 | – | > 100 | > 100 | > 100 | > 100 | > 100
CC(C)(C)c1cc(C(=O)/C=C/c2c(Cl)cccc2Cl)cc(C(C)(C)C)c1O | > 100 | 28.2 | 22 | 32 | > 96.2 | > 54.8 | > 95.7 | 26.3 | > 56.5 | 35.2 | 25.3 | > 63.9 | 21.3 | 14.9 | > 100 | 36.2 | 24.5 | 30.3 | 28.1 | 25.9
C1=CC2C=CC(C=C1)P2c1ccccc1 (stereo unspecified) | > 100 | > 100 | > 100 | > 100 | > 100 | > 100 | > 100 | > 100 | > 100 | > 100 | > 100 | > 100 | > 100 | > 100 | > 100 | > 100 | > 100 | > 100 | > 100 | > 100
Nc1ccccc1-c1noc(=O)[nH]1 | > 100 | > 100 | > 100 | > 100 | > 100 | > 100 | > 100 | > 100 | > 100 | > 100 | > 100 | > 100 | > 100 | > 100 | > 100 | > 100 | > 100 | > 100 | > 100 | –
O=C1NC(N/N=C/c2ccccc2)=N/C1=C\c1ccco1 | 81.3 | 55.4 | > 100 | > 100 | > 100 | 50.6 | 37.3 | > 100 | > 100 | > 100 | > 100 | > 100 | > 100 | 80.4 | > 100 | > 100 | 68.4 | > 100 | 86 | > 100
O=C(Nc1ccccc1)OCCN=C1c2ccccc2C(Br)C(Br)c2ccccc21 (stereo unspecified) | 25.4 | 20.6 | 5.3 | 13 | 16 | 19.9 | 16.1 | 14.6 | 5.06 | 19.2 | 15.8 | > 31.6 | 19.9 | 9.69 | 22.5 | 16.3 | 16.5 | 17.6 | 3.61 | 3.85
Nc1ncc(Br)c(NCC2(CO)CCC2)n1 | > 100 | > 100 | > 100 | > 100 | > 100 | > 100 | > 100 | > 100 | > 100 | > 100 | > 100 | > 100 | > 100 | > 100 | – | > 100 | > 100 | > 100 | > 100 | > 100
Cn1c2ccc([N+](=O)[O-])cc2c(=O)n1Cc1ccccc1F | > 100 | > 100 | > 100 | > 100 | > 100 | > 100 | 91.6 | > 100 | > 100 | 92.4 | > 100 | > 100 | > 100 | > 100 | > 100 | > 100 | > 100 | > 100 | > 100 | > 100
O=C1NC(N/N=C/C(O)C(O)C(O)C(O)CO)=N/C1=C\c1ccco1 (stereo unspecified) | > 100 | > 100 | > 100 | > 100 | > 100 | > 100 | > 100 | > 100 | > 100 | > 100 | > 100 | > 100 | > 100 | > 100 | > 100 | > 100 | > 100 | > 100 | – | > 100
O=[N+]([O-])c1cccc2nc3ccccc3c(NCCCCNc3c4ccccc4nc4cccc([N+](=O)[O-])c34)c12 | > 33.2 | 0.0913 | 0.0892 | 0.173 | 0.133 | 0.372 | 0.0854 | 0.0366 | 0.0887 | 2.66 | 0.231 | > 100 | – | 0.117 | 1.69 | 0.174 | 0.187 | 0.302 | 0.398 | 0.0246
